Results from PubChem BioAssay AID1645871.

Conditions: pampa; pH 5.0; 30.0 min; 50.0 µM

SMILES	Papp [×10⁻⁶ cm/s]
O=C(c1ccc2ncccc2c1)N1CCc2c(nc3cc[nH]n3c2=O)C1	5.6
CCOC(=O)N1CCN(C(=O)Cn2sc3nc(C)cc(C)c3c2=O)CC1	19.1
FC(F)(F)c1ccccc1-c1nc(NCc2ccc(-c3cccnc3)cc2)c2ccccc2n1	712
CCN(CC)CCOc1ccc(Cc2ccccc2)cc1	236
O=c1ncn2nc(Sc3ccc(F)cc3F)ccc2c1-c1c(Cl)cccc1Cl	793
CCCCOc1ccc(C2c3c(oc4ccc(C)cc4c3=O)C(=O)N2CCCN(C)C)cc1OCC (centres undefined)	273
CC(C)(C)c1ccc(C(=O)Nc2ccc3c(c2)CCCN3C(=O)c2cccs2)cc1	884
C=CCc1ccc(O)c(-c2ccc(O)c(CC=C)c2)c1	446
COc1ccc(-c2cc(C)nc3c(-c4ccc(OC)c(OC)c4)c(C)nn23)cc1	> 1000
O=C(NCC1CCN(Cc2cccc(Cl)c2)CC1)Nc1ccc(F)c(Cl)c1	638
Cc1ccc(-n2ncc3c(NCCCn4ccnc4)ncnc32)cc1Cl	559
COc1ccc(-c2cc(-c3cccc(NC(C)=O)c3)cn3cncc23)cn1	45.4
CC(C)c1ccccc1-c1nc2c(c(NCc3ccc(-c4cccnc4)cc3)n1)CNC2	98.7
COC(=O)C1=C(C)NC(C)=C(C(=O)O[C@@H]2CCCN(Cc3ccccc3)C2)[C@@H]1c1cccc([N+](=O)[O-])c1	> 1000
CCOc1ccc(NC(=O)CC2C(=O)N(c3ccc(F)cc3)C(=O)N2CCc2sccc2C)cc1 (centres undefined)	831
COc1cc([C@@H]2c3cc4c(cc3[C@H](O)[C@H]3COC(=O)[C@H]23)OCO4)cc(OC)c1OC	262
COC(=O)c1ccc(O)c2ncc(N3CCN(C)CC3)cc12	80.1
COc1cccc(-n2nc(C(=O)O)cc2-c2ccc(C3CCCCC3)c(Cl)c2)c1	401
COc1ccc(OC)c(-n2c3c(cc(-c4nc(-c5ccc(Cl)cc5)cs4)c2=O)C(=O)CC(C)(C)C3)c1	331
Cc1cccc(S(=O)(=O)c2cn(Cc3ccccc3)c3cc(N4CCCC(C)C4)c(F)cc3c2=O)c1 (centres undefined)	832
O=C(Nc1ccccc1-c1cn2c(CN3CCNCC3)csc2n1)c1cnc2ccccc2n1	342
CC1=C(C(=O)Nc2nc3ccccc3s2)C(c2[nH]ncc2Cl)N=C(Nc2nc3ccccc3o2)N1 (centres undefined)	15.6
CCOC(=O)c1cnc2ccc(-c3cncc(NS(=O)(=O)c4ccccc4)c3)cn12	546
Oc1ccc(CN2CC(CNc3ccccc3)C3(C2)CN(c2ccccc2)C3)cc1 (centres undefined)	> 1000
COc1cc(NC(=O)c2nc3ccccc3n(C)c2=O)cc(OC)c1OC	151
Cc1ccccc1NC(=O)Nc1cccs1	209

SMILES	Papp [×10⁻⁶ cm/s]
C#CCOc1ccc(-c2nnc(Nc3ccc(NC(C)=O)cc3)c3ccccc23)cc1	265
COCCNC(=O)[C@H]1C[C@H](Oc2ccccc2)CN1Cc1ccc2[nH]ccc2c1	186
Cc1ccc2c(c1)N(S(=O)(=O)c1cc(-c3onc(C)c3C)ccc1C)CCO2	226
Cc1nc2nc(NC(=O)c3ccc(C(C)(C)C)cc3)[nH]n2c(=O)c1Cl	83.9
CNC(=O)c1ccccc1Nc1nc(Nc2ccc(N3CCOCC3)cc2OC)ncc1Cl	145
CCN1CCN(c2ncc3c(n2)CCN(Cc2cc(Br)cs2)C3)CC1	77.1
O=C(COc1ccccc1)NCC(c1cccs1)S(=O)(=O)c1ccc(Cl)cc1 (centres undefined)	855
Cc1cccc(-c2noc([C@@H]3Cc4nc[nH]c4CN3)n2)c1	169
COc1ccccc1-c1[nH]nc2ncc(-c3ccc(C)cc3)nc12	1.92
CC(C)c1nc(CN(C)C(=O)N[C@H](C(=O)N[C@@H](Cc2ccccc2)C[C@H](O)[C@H](Cc2ccccc2)NC(=O)OCc2cncs2)C(C)C)cs1	844
Fc1ccc(N2CCCN(CC3[C@H]4CNC[C@@H]34)CC2)cc1 (some centres undefined)	48.8
COc1ccc(-n2nc(C3CCCN(C(=O)Cc4ccc(F)cc4)C3)[nH]c2=O)cc1 (centres undefined)	524
COc1cc2c(cc1Oc1cccc(N(C)C)c1)NC(=O)C21CCN(c2cnccn2)CC1	> 1000
O=C(NCCCNc1nc(Nc2cccc(NC(=O)N3CCCC3)c2)ncc1I)c1cccs1	234
Cc1cnc(-c2ccccc2C(C)C)nc1NCc1ccc(-n2ccnn2)cc1	663
CC(=O)NCCNC[C@@H]1C=C(C)[C@H](Cc2nnc(-c3ccccc3)o2)C[C@H]1C(C)C	25.8
CCS(=O)(=O)c1ncc(N(Cc2ccc(F)cc2)Cc2ccco2)c(C(=O)Nc2cc(C)ccc2C)n1	696
COc1ccc(C(=O)NC2CCCc3c2[nH]c2c(Cl)cccc32)cc1OC (centres undefined)	483
Cc1cc(NS(=O)(=O)c2ccc3c(c2)CCC(=O)N3)ccc1F	463
CCOc1ccc(CCNC(=O)c2cccc(C(=O)c3ccccc3)c2)cc1OCC	> 1000
Cc1ccccc1C(=O)Nc1ccc2c(c1)CCCN2C(=O)c1cccs1	561
COc1ncc(-c2ccc3c(Nc4cc(Oc5cc(F)cc(F)c5)cc(C(=O)O)c4)c(S(=O)(=O)NC4CC4)cnc3c2)c(OC)n1	1.2
Cc1ccc(-n2nc3c(=O)n(CCCC(=O)NCc4ccccc4F)nc(C)c3c2C)cc1	291
Cc1cccc(-c2cc(NC(=O)c3ccccc3C)n(-c3ccccc3)n2)c1	786
COc1ccc(-c2noc(CSc3nnc(Cc4ccccc4)n3-c3ccc(F)cc3)n2)cc1	> 1000
CC(C)c1ccc(CC(=O)N2CCCc3ncc(C(=O)Nc4cccnc4)cc32)cc1	932

SMILES	Papp [×10⁻⁶ cm/s]
O=C(Cc1cccs1)NCc1nnc2ccc(-c3ccccc3)nn12	55.9
Cc1nc(-c2ccco2)cc([C@H]2CN3CC[C@H]2C[C@@H]3CNC(=O)NC2CCCCC2)n1	4.96
Cc1ccc(Cl)cc1NS(=O)(=O)c1cc2c(cc1F)NC(=O)CC2	617
CCOc1ccc(OCC)c(NC(=O)C(NS(=O)(=O)c2ccc(Br)s2)c2ccccc2)c1 (centres undefined)	637
CC1=C[C@@H](CNCc2cccnc2)[C@H](C(C)C)C[C@H]1Cc1nnc(-c2ccc([N+](=O)[O-])cc2)o1	984
COc1cccc2c1CCCC2CCCN1CCN(C2CCCCC2)CC1 (centres undefined)	777
CCOC(=O)C1CCN(c2ncc(-c3ccc4c(c3)OCCCO4)s2)CC1	> 1000
CCCNC(=O)c1ccc2c(c1)N=C(C)c1c(C)ccc(C)c1S2	> 1000
CCc1ccccc1Nc1ncnc2c1cnn2-c1ccc(Cl)cc1	100
CCc1cc(Cl)c(OC)c(C(=O)NC[C@@H]2CCCN2CC)c1O	899
COc1ccc(-n2nc(C3CCCN(CC4CCCCC4)C3)[nH]c2=O)cc1 (centres undefined)	322
Cc1ccc(CN2CCOC[C@H]2c2ncc(-c3cccc(F)c3)[nH]2)cc1	995
CCCN1C(CC(C)C)=NS(=O)(=O)c2cc(NC(=O)c3cccs3)ccc21	275
CN(C)c1ccc(-c2cc[nH]c(=O)c2N)cc1	171
Oc1ccccc1CN1CCNc2cc(Nc3ccccc3)ncc2C1	23.1
CCCCNC(=O)CN1CCN(c2ncc(NC(=O)c3ccc(Cl)cc3)cc2C(=O)O)CC1	1.92
COc1ccc(-n2nc3c(N4CCCC(C(=O)NCCc5ccc(C)cc5)C4)nnc(C)c3c2C)cc1 (centres undefined)	467
COc1ccc(-c2c(-c3cc(C(=O)O)ccn3)ncn2C)cc1	2.67
C[C@]12N[C@H](Cc3ccccc31)c1ccccc12	72.8
COc1ccc(-n2nc(C3CCN(C(=O)Cc4ccc(F)cc4)CC3)[nH]c2=O)cc1	410
O=C(Nc1ccc(Cl)cc1)C(NS(=O)(=O)c1cccs1)c1ccccc1 (centres undefined)	443
Fc1cccc(CN2CCNc3cc(Nc4ccccc4)ncc3C2)c1	5.74
COCCNC(=O)c1ccc(-c2ncc3cnc(-c4cccc(F)c4)cn23)cc1	283
COc1ccc(CN2CCNc3cc(Nc4ccccc4)ncc3C2)cc1O	3.07
CCc1ccc(-n2nc(C)c3c2NC(=O)CSC3c2ccccc2C)cc1 (centres undefined)	707
Cc1c(-c2cccc(NC(=O)c3ccc(F)c(F)c3)c2)nc2ncccn12	710

SMILES	Papp [×10⁻⁶ cm/s]
CC(=O)Nc1ccc(C(=O)Nc2ccc3c(c2)N(C2CCCC2)C(=O)c2ccccc2S3)cc1	511
Oc1ccc(-c2nc(C3CC3)nc3c2CCN(Cc2ccc(F)cc2)CC3)cc1	421
FC(F)(F)c1ccc(CN2CCNc3cc(Nc4ccccc4)ncc3C2)cc1	21.1
Cc1ccccc1N(C)C1CN([S+](=O)([O-])c2cccc(C(F)(F)F)c2)C1	924
Oc1ccc(-c2nc(C3CC3)nc3c2CCN(CC2CCCCC2)CC3)cc1	190
Cn1nnnc1Sc1ncnc2scc(-c3cc4ccccc4o3)c12	52.8
CCOc1ccc(-c2cn3c(n2)sc2cc(C(=O)NCCCN(CC)CC)ccc23)cc1	114
NC(=O)c1ccc(-c2ncc3cnc(-c4cccc(F)c4)cn23)cc1	135
CCC(Sc1nc2ccccc2c2nc(CCc3c(C)n[nH]c3C)nn12)C(=O)Nc1ccc(F)cc1 (centres undefined)	205
O=C(Nc1ccc(F)cc1F)c1cc(-c2ccc[nH]2)n[nH]1	166
CNc1oc(-c2cccc3ccccc23)nc1C#N	645
Nc1ncc(S(=O)(=O)N2CCN(c3ccccc3)CC2)cn1	6.73
Cc1nn2c(c1-c1ccccc1-c1ccccc1)N(CC1CC1)CCC2	> 1000
COc1cc(C(=O)NC2CCCc3c2[nH]c2ccccc32)cc(OC)c1OC (centres undefined)	926
COc1cccc(Nc2ncc(-c3cccc(N(C)C)c3)c3c2OCC3)c1	> 1000
CC1=Nc2cc(C(=O)NCCc3ccccc3)ccc2Sc2c(C)ccc(C)c21	466
COc1ccc(-n2nc(C)c([C@@H]3C=C[C@@H](NCc4ccc(F)cc4)C3)c2C)cc1	482
O=C(Nc1ccc(N2CCC(N3CCCCC3)CC2)c(C(=O)O)c1)c1ccc(Br)cc1	7.15
CCc1ccc(C2C(C(=O)Nc3ccccc3OC)=C(C)Nc3c(C(=O)Nc4ccc(C)cc4)cnn32)cc1 (centres undefined)	288
CCN(CC)C(=O)N1c2ccccc2C=Cc2ccccc21	> 1000
Cc1noc(C)c1-c1cc(-c2ccc3c(c2)C(=O)NC3)cn2cncc12	64.5
COc1ccc(NC(=O)CCCc2nnc3n(CCC(C)C)c(=O)c4sccc4n23)cc1Cl	> 1000
Cc1cccc(S(=O)(=O)c2cn(Cc3ccccc3)c3cc(N4CCCCC4C)c(F)cc3c2=O)c1 (centres undefined)	485
O=C(Cc1c[nH]c2ncc(-c3ccc(Cl)cc3)cc12)NCc1cccnc1	818
Cc1nc([C@](C)(O)CO)sc1-c1cnc(N)c(O[C@H](C)c2cc(F)ccc2-n2nccn2)c1	322
CCCCOc1ccc(CNC(=O)c2cc3n(n2)CCCN(Cc2ccc(C)cc2)C3=O)cc1	867
